In patent US9572858B2, “Composition for treating and preventing benign prostatic hyperplasia” (GemVax & KAEL Co., Ltd., priority 2013, dated 2017):

Assays:
[1] = test system: BPH induced animal model (sulpiride); assay: Organ weights in sulpiride BPH induced animal model; type: in vivo, Sprague-Dawley male rats; conditions: rat
5α-reductase = assay: Expression of 5α-reductase in ventral prostate by RT-PCR, BPH induced animal model; type: in vivo, Sprague-Dawley male rats; conditions: sulpiride 40 mg/kg alone, 60 days, rat
Source text: As androgen, the most commonly used hormone in the body is testosterone. But the most powerful hormone of androgens related to development of prostate is 5α-dihydrotestosterone (DHT) which is made by combining testosterone and 5α-reductase. […] It is reported that DHT made by hyperprolactinemia make more gaining weight in lateral lobe than dorsal lobe or ventral lobe of prostate. Based on this fact, the experiment using PEP1 according to example 1 only or co-administration with other test material to BPH induced animal model was done as follows. […] Also before administrating the test materials, the body weights of every animal were measured and recorded.
Sulpiride as test material was purchased from Sigma Chemical Co. (St. Louis, Mo., USA) and used for the experiment. […] The dosage of the administration was calculated based on the concentration of 0.5 ml/kg with reflecting the body weight measured every day. […]
After administrating sulpiride with test materials for 60 days and collecting ventral prostate, the effect to the expression of 5α-reductase was measured by using RT-PCR. […] After then RNA was quantified by using spectrophotometer. […] For the control of quantification in electrophoresis, GAPDH whose expression level is not changed by other drugs was used. […]

[2] = Sulpiride 40 mg/kg 60 days alone (BPH induction)
[3] = Sulpiride 40 mg/kg 60 days + Finasteride 5 mg/kg

`CCN1CCCC1CNC(=O)c1cc(S(N)(=O)=O)ccc1OC` (stereo not shown) [Sulpiride, sulpiride] was tested, and the Weight of prostate [1, 2] was 1.59 ± 0.05 g, the “Weight of seminal vesicle” value [1, 2] was 1.23 ± 0.11 g and the Prostate index ([1]; Sulpiride 40 mg/kg 60 days alone (BPH induction), equation Final prostate weight/body weight) was 0.303. The “Level of 5α-reductase expression in ventral prostate (RT-PCR)” value (5α-reductase) was “increased”.

`CC(C)(C)NC(=O)[C@H]1CC[C@H]2[C@@H]3CC[C@H]4NC(=O)C=C[C@]4(C)[C@H]3CC[C@]12C` [Finasteride, finasteride] was tested, and the Prostate index [1, 3] was 0.157, the Weight of prostate [1, 3] was 0.75 ± 0.06 g and the “Weight of seminal vesicle” value [1, 3] was 0.49 ± 0.02 g.
